# Reference: patent publication US4892947A, “3(2H)Pyridazinone, process for its preparation and anti-allergic agent containing it” (Nissan Chemical Industries Ltd., priority 1985, dated 1990)
# Structures can show the parent of a compound that is named as a salt.
# Tested on: LTD4
# Experiment: LTD4 antagonism in isolated guinea-pig trachea (method (i))
# Assay type: cell-based
# Details: 10^-5 g/ml test compound, 5 min prior to LTD4 (2×10^-8 g/ml), hydrochloride
# Experimental: (i) LTC4 and LTD4 antagonisms in guinea-pig trachea
# Antagonisms for LTC4 and LTD4 were determined in isolated guinea-pig trachea prepared as spiral strip. Tracheal preparations were suspended under 1 g tension in 10 ml organ baths and they were incubated for 1 hr prior to use. Contractile responses to LTC4 (2×10^-8 g/ml) and LTD4 (2×10^-8 g/ml) were obtained after the maximal response to histamine (10^-4 M). Test compounds dissolved in 100% dimethyl sulfoxide were added to the organ baths (final concentration of 10^-5 g/ml or 10^-6 g/ml) 5 min prior to LTC4 and LTD4 addition, and then contractile responses to LTC4 and LTD4 were compared with those of control which was obtained from a paired trachea in the absence of test compounds. LTC4 - and LTD4 -induced contractions were expressed as a percentage of the maximal response to histamine. The antagonism was determined as follows:
# (§1) Antagonism (%)=(1.0-% contraction in test/% contraction in control)×100
row,SMILES,LTD4 antagonism (%)
1,"COc1ccc(CNc2cnn(CCN(C)C)c(=O)c2Cl)cc1OC [Compound No. 9, 4-Chloro-5-(3,4-dimethoxybenzylamino)-2-(2-N,N-dimethylaminoethyl)-3(2H)pyridazinone hydrochloride]",26

# Same assay, conditions: Cavia porcellus, 5 min, 10^-5 g/ml test compound, 5 min prior to LTD4 (2×10^-8 g/ml)
row,SMILES,inhibition at 10 µg/mL [%]
1,CC(C)c1ccc(CNc2cnn(C)c(=O)c2Cl)cc1 [Compound No. 1],49
2,C=CCn1ncc(NCc2ccc(Cl)cc2)c(Cl)c1=O [Compound No. 2],93
3,CCOc1cccc(CNc2cnn(C)c(=O)c2Cl)c1 [Compound No. 4],49
4,"COc1ccc(CNc2cnn(CCN(C)C)c(=O)c2Cl)cc1OC [Compound No. 8, 4-Chloro-5-(3,4-dimethoxybenzylamino)-2-(2-N,N-dimethylaminoethyl)-3(2H)pyridazinone]",36
5,CCCOc1cc(CNc2cnn(C)c(=O)c2Cl)ccc1OC [Compound No. 12],73
6,"CCCCCOc1cc(CNc2cnn(CCC(=O)OC(C)(C)C)c(=O)c2Cl)ccc1OC [Compound No. 16, 4-Chloro-5-(3-n-pentyloxy-4-methoxybenzylamino)-2-{2-(t-butyloxycarbonyl)ethyl}-3(2H)pyridazinone]",24
7,CCCOc1cc(CNc2cn[nH]c(=O)c2Cl)ccc1OC [Compound No. 32],100
8,CCCOc1cccc(CNc2cnn(C)c(=O)c2Cl)c1 [compound 5],71
9,C=CCn1ncc(NCc2ccc(OC)c(OC)c2)c(Cl)c1=O [compound 6],53
10,Cn1ncc(NCc2cccc(OCc3ccccc3)c2)c(Cl)c1=O [compound 7],53
11,COc1ccc(CNc2cnn(CC(F)(F)F)c(=O)c2Cl)cc1OC [compound 11],47
12,CCCCCOc1cc(CNc2cnn(CCO)c(=O)c2Cl)ccc1OC [compound 14],35
13,CCCCCOc1cc(CNc2cnn(CCCO)c(=O)c2Cl)ccc1OC [compound 15],51
14,CCCCCOc1cc(CNc2cnn(CC(=O)O)c(=O)c2Cl)ccc1OC [compound 17],20
15,CCCCCOc1cc(CNc2cnn(CCC(=O)O)c(=O)c2Cl)ccc1OC [compound 18],18
16,COc1cc(CNc2cnn(C)c(=O)c2Cl)cc(OC)c1OC [compound 19],22
17,COc1cc(CNc2cnn(CCCO)c(=O)c2Cl)cc(OC)c1OC [compound 20],19
18,COc1ccc(CNc2cnn(CCN(C)C)c(=O)c2Cl)cc1O [compound 21],20
19,C=CCn1ncc(NCc2ccc(SC)cc2)c(Cl)c1=O [compound 22],72
20,CCCCC/C=C\c1ccc(CNc2cnn(CC(=O)O)c(=O)c2Cl)cc1 [compound 23],31
21,CCCCOC(=O)c1ccc(CNc2cnn(C)c(=O)c2Cl)cc1 [compound 24],43
22,CN(C)c1ccc(CNc2cn[nH]c(=O)c2Cl)cc1 [compound 25],63
23,CCN(CC)c1ccc(CNc2cnn(C)c(=O)c2Cl)cc1 [compound 26],46
24,Cn1ncc(NCc2ccc(C(=O)O)cc2)c(Cl)c1=O [compound 27],20
25,COc1ccc(CNc2cn[nH]c(=O)c2Cl)cc1 [compound 28],67
26,CCCOc1cccc(CNc2cn[nH]c(=O)c2Br)c1 [compound 29],61
27,CCCOc1cc(CNc2cn[nH]c(=O)c2Br)ccc1OC [compound 30],100
28,CCCOc1cccc(CNc2cn[nH]c(=O)c2Cl)c1 [compound 31],51

# Same assay, conditions: Cavia porcellus, 5 min, 10^-6 g/ml test compound, Test method (i) (asterisk in Table 4), 5 min prior to LTD4
row,SMILES,inhibition at 1 µg/mL [%]
1,CCCOc1cc(CNc2cn[nH]c(=O)c2Cl)ccc1OC [Compound No. 32],64
2,CCCCCOc1cc(CNc2cn[nH]c(=O)c2Cl)ccc1OC [Compound No. 37],87
3,"CCCCCOc1cc(CNc2cn[nH]c(=O)c2Br)ccc1OC [Compound No. 39, 4-Bromo-5-(3-n-pentyloxy-4-methoxybenzylamino)-3(2H)-pyridazinone]",87
4,CCCOc1cc(CNc2cn[nH]c(=O)c2Br)ccc1OC [compound 30],78
5,CCCCOc1cc(CNc2cn[nH]c(=O)c2Cl)ccc1OC [compound 34],49
6,CCOc1cc(CNc2cn[nH]c(=O)c2Cl)ccc1OC [compound 35],42

# Tested on: antigen-induced anaphylactic bronchoconstriction in passively sensitized guinea-pig
# Experiment: Anaphylactic bronchoconstriction in passively sensitized guinea-pig, i.v. test
# Assay type: in vivo
# Details: i.v. 2 mg/kg, 1 min prior to EA challenge (10 mg/kg)
# Experimental: (§2) (iii) Effect on anaphylactic bronchoconstriction in passively sensitized guinea-pig
# Male guinea-pigs (350-450 g) were passively sensitized with intravenous (i.v.) injection of 0.125 ml rabbit anti-EA (egg albumin) serum (Cappel Laboratories) 1 to 2 days preceding the experiment. […] Sensitized guinea-pigs were anaesthetized with intraperitoneal injection of urethane (1.5 g/kg). The right jugular vein was cannulated for the administration of the all agents and trachea was cannulated to record total pulmonary resistance. Guinea-pigs were artificially ventilated by a small animal respirator (Shinano, Model SN-480-7) set at a stroke volume of 4.5 ml and a rate of 50 breaths per min. […] The increase in air overflow volume was expresssed as a percentage of the maximum bronchoconstriction obtained by clamping off the trachea. Following surgical preparation, the animals were pretreated with indomethacin (0.2 mg/kg, 10 min), pyrilamine (2 mg/kg, 6 min) and propanolol (0.1 mg/kg, 5 min) prior to the EA challenge (0.1 or 10 mg/kg). All test compounds were administered intraveneously or orally before the EA challenge. Inhibition (%) of bronchoconstriction was determined as follows: Inhibition (%)=(1.0%-maximum bronchoconstriction in test/% maximum bronchoconstriction in control)×100. […] The number of test animals was 4 in the i.v. test and 6 in the p.o. test.
# (a) The i.v. test: A test compound (2 mg/kg) was suspended or dissolved in 3% Tween 80 and intraveneously administered 1 min prior to the EA challlenge (10 mg/kg).
row,SMILES,Inhibition (%) of bronchoconstriction [%]
1,CCCOc1cc(CNc2cnn(C)c(=O)c2Cl)ccc1OC [Compound No. 12],31
2,CN(C)c1ccc(CNc2cn[nH]c(=O)c2Cl)cc1 [compound 25],27

# Tested on: antigen-induced anaphylactic bronchoconstriction in passively sensitized guinea-pig
# Experiment: Anaphylactic bronchoconstriction in passively sensitized guinea-pig, p.o. test
# Assay type: in vivo
# Details: p.o. 50 mg/kg, 2 hours prior to EA challenge (0.2 mg/kg)
# Experimental: as §2
# Male guinea-pigs (350-450 g) were passively sensitized with intravenous (i.v.) injection of 0.125 ml rabbit anti-EA (egg albumin) serum (Cappel Laboratories) 1 to 2 days preceding the experiment. Antigen-induced anaphylactic bronchoconstrictions were measured by modified method of Konzett and Rossler (Arch. Exp. Path. Pharmak., 195, 71, 1940). Sensitized guinea-pigs were anaesthetized with intraperitoneal injection of urethane (1.5 g/kg). The right jugular vein was cannulated for the administration of the all agents and trachea was cannulated to record total pulmonary resistance. Guinea-pigs were artificially ventilated by a small animal respirator (Shinano, Model SN-480-7) set at a stroke volume of 4.5 ml and a rate of 50 breaths per min. The change in pulmonary resistance was measured with a pressure transducer (Nihon Kohden, Model TP-602T) connected to a T-tube on the tracheal cannula. The increase in air overflow volume was expresssed as a percentage of the maximum bronchoconstriction obtained by clamping off the trachea. Following surgical preparation, the animals were pretreated with indomethacin (0.2 mg/kg, 10 min), pyrilamine (2 mg/kg, 6 min) and propanolol (0.1 mg/kg, 5 min) prior to the EA challenge (0.1 or 10 mg/kg). All test compounds were administered intraveneously or orally before the EA challenge. Inhibition (%) of bronchoconstriction was determined as follows: Inhibition (%)=(1.0%-maximum bronchoconstriction in test/% maximum bronchoconstriction in control)×100. The maximum bronchoconstriction was btained within 30 min after the EA challenge. The number of test animals was 4 in the i.v. test and 6 in the p.o. test.
# (b) The p.o. test: A test compound was suspended in 5% gum arabic and orally administered 2 hours prior to the EA challenge (0.2 mg/kg). The reaction of the control was 62±6%.
row,SMILES,Inhibition (%) of bronchoconstriction [%]
1,CCCOc1cc(CNc2cn[nH]c(=O)c2Cl)ccc1OC [Compound No. 32],71
2,CCCOc1cc(CNc2cn[nH]c(=O)c2Br)ccc1OC [compound 30],65

# Tested on: ddY strain male mice
# Experiment: Acute toxicity test, intraperitoneal (Test method-(1))
# Assay type: in vivo
# Details: i.p. 200 mg/kg, 7 days
# Experimental: The lethal ratio was determined in ddY strain male mice (4 weeks old) at 7 days after the intraperitoneal injection of test compounds.
row,SMILES,Lethal ratio (Death number/Experimental number)
1,CCCOc1cc(CNc2cnn(C)c(=O)c2Cl)ccc1OC [Compound No. 12],0/2

# Same assay, conditions: i.p. 400 mg/kg, 7 days
row,SMILES,Lethal ratio (Death number/Experimental number)
1,CCCOc1cc(CNc2cnn(C)c(=O)c2Cl)ccc1OC [Compound No. 12],0/1

# Tested on: LTD4
# Experiment: LTD4 antagonism in isolated guinea-pig trachea with indomethacin (method (ii))
# Assay type: cell-based
# Details: Cavia porcellus, 0.5 h, 10^-6 g/ml test compound, 30 min prior to LTD4
# Experimental: (ii) LTD4 antagonism in guinea-pig trachea
# Antagonism for LTD4 was determined in isolated guinea-pig trachea prepared as spiral strip. Tracheal preparations were suspended under 1 g tension in 10 ml organ baths containing […] of indomethacin and they were incubated for 1 hr prior to use. Contractile responses to LTD4 (2×10^-8 g/ml) were obtained after the maximal respone to hitamine (10^-4 M). Test compounds dissolved in 100% dimethyl sulfoxide were added to the organ baths (final concentration of 10^-6 g/ml) 30 min prior to LTD4 addition, and then contractile responses to LTD4 were compared with those of control which was obtained from a paired trachea in the absence of test compounds. LTD4 -induced contractions were expressed as a percentage of the maximal response to histamine. The antagonism was determined as follows:
# as §1
row,SMILES,inhibition at 1 µg/mL [%]
1,CCCCCCOc1cc(CNc2cn[nH]c(=O)c2Br)ccc1OC [Compound No. 41],87
2,CCCCCCOc1cc(CNc2cn[nH]c(=O)c2Cl)ccc1OC [compound 40],99
3,CCCCCCCOc1cc(CNc2cn[nH]c(=O)c2Cl)ccc1OC [compound 42],96
4,CCCCCCCOc1cc(CNc2cn[nH]c(=O)c2Br)ccc1OC [compound 43],78
5,COc1ccc(CNc2cnn(-c3ccccc3)c(=O)c2Cl)cc1 [compound 44],20
6,COc1ccc(CNc2cnn(Cc3ccccc3)c(=O)c2Cl)cc1 [compound 45],23
7,CCOc1cc(CNc2cnn(C3CCCC3)c(=O)c2Cl)ccc1OC [compound 46],38
8,C=CCn1ncc(NCc2ccc(OC)c(OCCC)c2)c(Cl)c1=O [compound 47],31
9,C=CCn1ncc(NCc2ccc(OC)c(OCC)c2)c(Cl)c1=O [compound 48],28
10,CCOc1cc(CNc2cnn(-c3ccccc3)c(=O)c2Cl)ccc1OC [compound 49],42
11,CCOc1cccc(CNc2cnn(Cc3ccccc3)c(=O)c2Cl)c1 [compound 50],30
12,Cc1ccc(CNc2cn[nH]c(=O)c2Cl)c(C)c1 [compound 52],22
13,Cc1ccc(CNc2cn[nH]c(=O)c2Br)c(C)c1 [compound 53],37
14,COc1ccc(CNc2cn[nH]c(=O)c2Cl)cc1OCc1ccccc1 [compound 54],44
